According to publication PMC3441706 (PLoS ONE, 2012):
pIC50: −log10 of the molar value.

Assays:
[1] = tested on: Breast Cancer cell lines; test: NCI-60 DTP human tumor cell line screen (sulphorhodamine B); assay type: cell-based; settings: 5 cell lines, 48 hours incubation
Method: (§1) NVX-412 was included in an anti-cancer activity screen by the National Cancer Institute (NCI). The compound was tested against 59 different human tumor cell lines, representing leukemia, melanoma and cancers of the lung, colon, brain, ovary, breast, prostate, and kidney (for a complete list of cell lines please refer to Shoemaker et al. 2006 [5]). The methodology of this in vitro cancer screen is described in detail on the NCI website (http://dtp.nci.nih.gov/branches/btb/ivclsp.html). Briefly, the human tumor cell lines of the cancer screening panel were grown in RPMI 1640 medium containing 5% FCS and 2 mM L-glutamine in 96-well plates at densities ranging from 5,000 to 40,000 cells/well. After 24 hours the experimental drug was added at 5 concentrations plus control and cells were incubated for additional 48 hours. For determination of the growth-inhibitory effect of the compound a sulphorhodamine B assay was performed that employs a chemical fixation step at the end of drug treatment and a subsequent staining for 10 minutes. After a washing step, absorbance was determined at 515 nm. Three different dose response parameters are then calculated: growth inhibition of 50% (GI50), which is the drug concentration resulting in a 50% reduction in the net protein increase, the drug concentration resulting in total growth inhibition (TGI) and the LC50, indicating a net loss of cells following treatment.

[2] = tested on: Central Nervous System Cancer cell lines; test: as above; assay type: cell-based; settings: 5 cell lines, 48 hours incubation
Method: as §1

[3] = tested on: Colon Cancer cell lines; test: as above; assay type: cell-based; settings: 7 cell lines, 48 hours incubation
Method: as §1

[4] = tested on: Leukemia cell lines; test: as above; assay type: cell-based; settings: 6 cell lines, 48 hours incubation
Method: as §1

[5] = tested on: Melanoma cell lines; test: as above; assay type: cell-based; settings: 9 cell lines, 48 hours incubation
Method: as §1

[6] = tested on: Non-Small Cell Lung Cancer cell lines; test: as above; assay type: cell-based; settings: 9 cell lines, 48 hours incubation
Method: as §1

[7] = tested on: Ovarian Cancer cell lines; test: as above; assay type: cell-based; settings: 6 cell lines, 48 hours incubation
Method: as §1

[8] = tested on: Prostate Cancer cell lines; test: as above; assay type: cell-based; settings: 2 cell lines, 48 hours incubation
Method: as §1

[9] = tested on: Renal Cancer cell lines; test: as above; assay type: cell-based; settings: 8 cell lines, 48 hours incubation
Method: as §1

[10] = tested on: 59 different human tumor cell lines; test: NCI-60 DTP human tumor cell line screen, all cell lines combined; assay type: cell-based; settings: 48 h, all cancer types, 48 hours incubation
Method: as §1, with “Three different dose response parameters are then calculated: growth inhibition of 50% (GI50), which is the drug concentration resulting in a 50% reduction in the net protein increase, the drug concentration resulting in total growth inhibition (TGI) and the LC50, indicating a net loss of cells following treatment.” left out

[11] = tested on: HCT116; test: Cytotoxicity assay (cell counting); assay type: cell-based, Human
Method: (§2) Cells were plated in 24-well plates. After cells were allowed to recover for 24 hours, NVX-412 was added in fresh growth medium. The maximal DMSO concentration reached in all experiments was below 0.01%. Respective control experiments at the highest DMSO concentration were performed in order to rule out DMSO-induced effects. After 72 hours incubation the proportion of viable cells was determined by cell counting with a Z1 Coulter Particle Counter (Beckman Coulter, Vienna, AUT), a ViCell XR (Beckman Coulter, Vienna, AUT) or a CASY® Cell Counter (Schärfe, Reutlingen, Germany). Cytotoxicity was expressed as IC50 values that were derived from the corresponding dose–response curves.

[12] = tested on: HT-29; test: Cytotoxicity assay (cell counting); assay type: cell-based, Human
Method: as §2

[13] = tested on: Normal human endothelial cells (HUVEC); test: Cytotoxicity assay, normal cells; assay type: cell-based
Method: as §2

[14] = tested on: human white preadipocytes (hWP); test: Cytotoxicity assay, normal cells; assay type: cell-based
Method: as §2

[15] = tested on: HCT116 cells; test: Morphology assay / quantification of cell sizes; assay type: cell-based, human; settings: HCT116, 48 hours treatment, 0.15 and 1 µM
Method: (§3) To investigate potential morphological changes upon treatment with NVX-412, HCT116, HeLa and HT-29 cells were plated in 6-well plates and incubated for up to 72 hours with the indicated concentrations of NVX-412, DMSO as vehicle control and 1 µM Camptothecin (CPT) as a positive control for apoptotic morphology. Control experiments were carried out to ensure that morphological changes are not due to differences in confluency. After 24, 48 and 72 hours pictures were taken with an Olympus IX71 inverted microscope and camera system (Olympus Color View III) at 20× magnification.
(§4) Cell sizes were quantified using specialized imaging software (ImageJ 1.45d, US NIH, Bethesda, MD, USA). Average areas of all cells present within 5 different fields of view per sample were determined after 48 hours treatment with 0, 0.15 and 1 µM NVX-412.

[16] = tested on: HT-29 cells; test: Morphology assay / quantification of cell sizes; assay type: cell-based, human; settings: HT-29, 48 hours treatment
Method: as §3, §4

[17] = tested on: HeLa cells; test: Morphology assay / quantification of cell sizes; assay type: cell-based, human; settings: 48 hours treatment
Method: as §3, §4

[18] = tested on: p-p53 (Ser15); test: Western Blot for p-p53 (Ser15) in HCT116 cells; assay type: cell-based, human; settings: HCT116, 24 and 48 hours
Method: (§5) Treated cells were directly lysed in NP40 cell lysis buffer (Invitrogen, Grand Island, NY, USA) containing protease and phosphatase inhibitors. Protein concentrations were measured colorimetrically (DC Protein Assay, Bio-Rad Laboratories, Hercules, CA, USA). Proteins were separated by SDS - polyacrylamide gel electrophoresis and blotted onto nitrocellulose membranes (Whatman™, Vienna, AUT). Equal loading was checked by Ponceau S (SERVA, Heidelberg, GER) staining. Bound antigen was visualized with the enhanced chemiluminescence detection system (Roche Diagnostics, Indianapolis, IN, USA). These procedures were performed according to the manufacturer’s protocols. Antibodies specific for the following proteins of interest were used: pChk1 (Ser296), p-p53 (Ser15), β-Tubulin and GAPDH were obtained from Cell Signaling Technology (Danvers, MA, USA) at 1∶1000 dilution. Secondary antibodies were peroxidase-tagged goat anti-rabbit or anti-mouse IgGs (Cell Signaling Technology) (1∶2000).

[19] = tested on: pChk1 (Ser296); test: Western Blot for pChk1 (Ser296) in HCT116 cells; assay type: cell-based, human; settings: HCT116, 150 nM, 0–48 hours
Method: as §5

For `O=C(NNc1nc2cc(F)ccc2n2cccc12)c1cnccn1` [NVX-412, Pyrazine-2-carboxylic acid N’- (7-fluoro-pyrrolo[1,2-α]quinoxalin-4-yl)-hydrazide-oxalic acid co-crystal], the pIC50 [1] was 6.58, the pIC50 [2] was 6.78 and the pIC50 [3] was 6.77. It also gave a pIC50 [4] of 7.21, a pIC50 [5] of 6.67 and a pIC50 [6] of 6.76. For the same molecule, the pIC50 [7] was 6.42, the pIC50 [8] was 6.56 and the pIC50 [9] was 6.74. For the same molecule, the pIC50 [10] was roughly 6.70, the “IC50 lower compared to the parental compound NVX-144” value ([11]; HCT116 colon carcinoma cell line) was 3 to 4 fold and the pIC50 ([11]; Homo sapiens, HCT-116, HCT116, colon carcinoma, 72 hours incubation) was 6.82. The “IC50 lower compared to the parental compound NVX-144” value ([12]; HT-29 colon carcinoma cell line) was 3 to 4 fold, the pIC50 ([12]; Homo sapiens, HT-29, colon adenocarcinoma, 72 hours incubation) was 6.52 and the pIC50 [13] was 5.70. For the same molecule, the pIC50 [14] was 6.00, the Cell sizes [15] was “highly significant increase in cell sizes” and the Cell sizes [16] was “highly significant increase in cell sizes”. The Cell sizes [17] was “highly significant increase in cell sizes”, the “Phosphorylated p53 (Western Blot)” value ([18]; below or at the IC50) was “negative for phosphorylated p53” and the “Phosphorylated p53 (Western Blot)” value ([18]; concentrations above the IC50) was “strong induction”. The “Chk1 Ser296 phosphorylation” value [19] was “increased after 4 hours”.
